Data on six molecules can be found in ChEMBL document CHEMBL1145655, “Plant anticancer agents XXV. Constituents of Soulamea soulameoides” (1983).

Common to all, as to assay type: functional
One assay deals with KB. Description: Cytotoxicity against human KB cells. Conditions: read-out: ED50 (the source's name).
Assay [1] has as its system P388. Description: Cytotoxicity against mouse P388 cells. To be noted: read-out: ED50 (the source's name).
In assay [2] the test system is P388. Briefly: In vivo antitumor activity against mouse P388 cells at 1 mg/kg relative to control.
Assay [3] concerns P388. Briefly: In vivo antitumor activity against mouse P388 cells at 0.5 mg/kg relative to control.
Assay [4] deals with P388. Description: In vivo antitumor activity against mouse P388 cells at 0.25 mg/kg relative to control.
In assay [5] the test system is P388. Briefly: In vivo antitumor activity against mouse P388 cells at 19.6 mg/kg relative to control.
The subject of assay [6] is P388. Briefly: In vivo antitumor activity against mouse P388 cells at 9.83 mg/kg relative to control.
The subject of assay [7] is P388. Description: In vivo antitumor activity against mouse P388 cells at 4.92 mg/kg relative to control.
Assay [8] relates to P388. Briefly: In vivo antitumor activity against mouse P388 cells at 2.46 mg/kg relative to control.
For assay [9], the system named is P388. Briefly: In vivo antitumor activity against mouse P388 cells at 7.5 mg/kg relative to control.
Assay [10] has as its system P388. Description: In vivo antitumor activity against mouse P388 cells at 3.8 mg/kg relative to control.
Assay [11] deals with P388. Description: In vivo antitumor activity against mouse P388 cells at 1.9 mg/kg relative to control.
Assay [12] relates to P388. Briefly: In vivo antitumor activity against mouse P388 cells at 0.9 mg/kg relative to control.
Assay [13] deals with P388. Briefly: In vivo antitumor activity against mouse P388 cells at 5 mg/kg relative to control.
For assay [14], the system named is P388. Description: In vivo antitumor activity against mouse P388 cells at 2.5 mg/kg relative to control.
The subject of assay [15] is P388. Description: In vivo antitumor activity against mouse P388 cells at 1.25 mg/kg relative to control.

Values after ≈ are worked out from the molar mass of the structure shown.

Regarding `COC(=O)[C@]12OC[C@]34[C@H]([C@@H](O)[C@@H]1O)[C@@]1(C)[C@H](O)C(=O)C=C(C)[C@@H]1C[C@H]3OC(=O)[C@H](OC(=O)CC(C)C)[C@@H]24` [ISOBRUCEIN A], the values for the EC50 with KB and with P388 [1] were 0.003 µg/mL (≈ 0.00574 µM) and 0.001 µg/mL (≈ 0.00191 µM), respectively. Further, the T/C was determined as 155% with P388 [2], 145% in the assay with P388 [3] and 138% with P388 [4].
As for `COC1=C(C)[C@@H]2CC(=O)O[C@@H]3C[C@H]4C(C)=C[C@H](O)C(=O)[C@]4(C)[C@@H](C1=O)[C@@]32C` [PICRASIN B], the EC50 in the assay on KB and with P388 [1] was greater than 100 µg/mL throughout. Further, the T/C is recorded as 107% in the assay with P388 [5], 107% in the assay on P388 [6], 102% in the assay with P388 [7] and 107% with P388 [8].
On to `CC(=O)O[C@H]1C(=O)O[C@@H]2C[C@H]3C(C)=CC(=O)[C@@H](O)[C@]3(C)[C@H]3[C@]4(O)OC[C@]32[C@@H]1[C@@H](C)[C@H]4O` [HOLACANTHONE], for which the T/C in the assay on P388 [9] came out at 136%; in the assay on P388 [10] it was 154%; in the assay on P388 [11], 134%; in the assay with P388 [12], 127%.
Consider `O=c1ccc2nccc3c4c(O)cccc4n1c23`, for which the EC50 with KB was 2.1 µg/mL (≈ 8.89 µM); in the assay on P388 [1] it was 2.3 µg/mL (≈ 9.74 µM). Besides, the values for the T/C with P388 [13], with P388 [14] and in the assay with P388 [15] were 102%, 107% and 108%, respectively.
As to `CC1=CC(=O)[C@@H](O)[C@]2(C)[C@H]3[C@]4(O)OC[C@]35[C@H]([C@@H](C)[C@H]4O)[C@@H](O)C(=O)O[C@@H]5C[C@@H]12` [GLAUCARUBOLONE], the values for the EC50 with KB and in the assay with P388 [1] were 0.11 µg/mL (≈ 0.279 µM) and 0.01 µg/mL (≈ 0.0254 µM), respectively. Also, in the assay with P388 [13], the T/C worked out at 132%.
As to `COc1cc([C@H]2Oc3c(OC)cc4ccc(=O)oc4c3O[C@@H]2CO)ccc1O` [CLEOMISCOSIN A], the EC50 is 4.9 µg/mL (≈ 12.7 µM) in the assay with KB and 2.8 µg/mL (≈ 7.25 µM) in the assay with P388 [1].

What is called T/C is the ratio of treated to control.
